Columns and labels:
[1] = human, in vivo
Procedure: Intracellular concentrations were normalised to tissue protein concentrations. dFdCTP=2′,2′-difluoro-2′-deoxycytidine; PBMCs=Peripheral Blood Mononuclear Cells.
6 ml of blood was collected using heparinised blood collection tubes. After centrifugation and separation of plasma, buffycoat was collected and transferred to new test tube containing 3 ml of Lymphoprep density gradient. After centrifugation, the upper interface containing the PBMC layer was transferred to new test tube. After washing with phosphate buffered saline (PBS), PBMCs were re-suspended in 100 μl PBS. Then, another 100 μl of 0.8 M PCA was added and the mixture was vortex mixed and centrifuged followed by transfer of 100 μl supernatant to new test tube. The PCA extracts were stored at −80° C. until time of analysis.
PCA extracts were buffered using 50 μl of 1M NH4Ac, then neutralised using 20 μl of 10% ammonia solution. Finally, 5 μl containing the internal standard 8-ChloroATP and 5 μl deionised water were then added. The extracts were transferred to LC-MS vials and 10 μl were injected into the UPLC-MS/MS system.
10 mg/mL stock solution of the analyte was prepared and aliquot frozen at −80° C. until use. The analyte was resolved using an ultra-performance liquid chromatography system (Accela UPLC, Thermo Scientific, UK) equipped with a Biobasic AX, 5 μm, 50×2.1 mm column (Thermo Electron Corporation, Murrieta, Calif., USA) and a mobile phase consisting of a mixture of 10 mM NH4Ac in ACN/H2O (30:70 v/v), pH 6.0 (A), and 1 mM NH4Ac in ACN/H2O (30:70 v/v), pH 10.5 (B). The mobile phase gradient was employed, comprising: buffer A=95% at 0-0.5 min, from 95 to 0% over 1.25 minutes, held at 0% for 1.75 minute, from 0 to 95% over 0.1 minutes, ending with 95% for 2.9 minutes, all at a flow rate of 500 μl/min.
Eluting compounds of interest were detected using a triple stage quadrupole Vantage mass spectrometry system (Thermo Scientific, UK) equipped with an electrospray ion source. Samples were analyzed in the Multiple Reaction Monitoring (MRM), positive (+ve) and negative (−ve) ion modes at a spray voltage of 3500 and 3000 V, respectively. Nitrogen was used as sheath and auxiliary gases at a flow rate of 50 and 20 arbitrary units, respectively. Argon was used as collision gas with pressure of 1.5 mTorr.
The combination regimen NUC-1031 with carboplatin was administered to 10 patients with ovarian cancer as part of the Phase Ib study PRO-002.

[2] = tested on: platinum sensitive recurrent ovarian cancer; details: cited from earlier work

Row | Apparent t1/2 (intracellular dFdCTP) ([1]; female) | Clearance ([1]; female) | Tmax (intracellular dFdCTP) ([1]; female) | Cmax intracellular dFdCTP levels relative to gemcitabine in combination with carboplatin [1] | intracellular dFdCTP Cmax concentrations relative to gemcitabine [1] | SMILES | levels of the toxic metabolite normally associated with gemcitabine [1] | response rate ([2]; P=0.0016) | median PFS ([2]; median follow-up 17 months, carboplatin AUC5 alone or AUC4 day 1 plus gemcitabine 1000 mg/m^2 days 1 & 8 every 3 weeks)
1 | 9.6 h | 3.9 L/h | 1 h | 4 fold | around 10 × | C[C@H](NP(=O)(OC[C@H]1O[C@@H](n2ccc(N)nc2=O)C(F)(F)[C@@H]1O)Oc1ccccc1)C(=O)OCc1ccccc1 (stereo partly drawn) [NUC-1031, 2′-Deoxy-2′,2′-difluoro-D-cytidine-5′-O-[phenyl (benzoxy-L-alaninyl)] phosphate] | less than half | – | –
2 | – | – | – | – | – | N.N.O=C([O-])C1(C(=O)[O-])CCC1.[Pt+2] [carboplatin] | – | 30.9% | 5.8 months

From US10660912B2, “Combination therapy for cancer” (NuCana plc, priority 2015, dated 2020)
